Non-standard residues stand in square brackets, D forms with d. Residues, ends and D or L forms follow the SMILES beside them. pY = N[C@@H](Cc1ccc(OP(=O)(O)O)cc1)C(=O)O
Tests used:
Assay type in all cases: binding
[1] = biological target: T1, c-Src SH2 domain (Homo sapiens, UniProt P12931); experiment: Competitive fluorescence polarization, c-Src SH2; conditions: competition fluorescence polarization, probe FITC-Ahx-GDG-pY-EEISPLLL-NH2 30 nM, mean
T1 construct: the SH2 domains of two closely-related kinases from the Src subfamily (c-Src and Fyn); made in house
From the text: (§1) All peptides containing phosphorylated tyrosine, both fluorescently labelled and non-labelled, were produced by SynPeptide (China).

[2] = biological target: T2, Grb2 SH2 domain (Homo sapiens, UniProt P62993); experiment: Competitive fluorescence polarization, Grb2 SH2; conditions: Table S3 unpaired validation; competition fluorescence polarization; probe FITC-Ahx-FDDPS(pY)VNVQN 30 nM; [SH2] 123 nM; mean
T2 construct: one distantly-related SH2 domain from the adapter protein Grb2; His6-SUMO (N); mCh (only in the data set names 'Grb2mCh'; possibly an mCherry fusion, never explained); made in house
From the text: as §1

[3] = biological target: T3, Fyn SH2 domain (Homo sapiens, UniProt P06241); experiment: Competitive fluorescence polarization, Fyn SH2; conditions: Table S3 unpaired validation; competition fluorescence polarization; probe FITC-Ahx-GDG-pY-EEISPLLL-NH2 0.4 nM; [SH2] 4.12 nM; mean
T3 construct: The human SH2 domains from Fyn (142–248), Lyn (121–228); His6-SUMO (N, cleaved yes); made in house; host or cells: E. coli C43(DE3) with BirA helper plasmid
Method: Next, the protein was eluted with elution buffer (50 mM Tris, pH 7.5, 50 mM NaCl, 250 mM imidazole, 10% glycerol) directly onto a 5 mL HiTrap Q HP anion exchange column (Cytiva). […] The biotinylated SH2 domain was then collected in a flowthrough after running the cleavage reaction over a HisTrap HP column.

[4] = Table S5 single-amino-acid substitution pairs, [SH2] 240 nM

T2 sequence (P62993 60-152 limits assumed): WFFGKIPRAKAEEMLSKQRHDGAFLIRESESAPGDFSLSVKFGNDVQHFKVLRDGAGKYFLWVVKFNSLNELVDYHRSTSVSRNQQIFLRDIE
T3 sequence (P06241 142-248): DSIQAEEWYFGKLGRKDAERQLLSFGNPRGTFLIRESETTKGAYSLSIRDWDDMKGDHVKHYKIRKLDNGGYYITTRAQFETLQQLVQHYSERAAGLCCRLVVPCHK

Compound	Kd [1, 4] [nM]	Kd [2] [nM]	further results
CC[C@H](C)[C@H](NC(=O)[C@@H]1CCCN1C(=O)[C@H](CCC(N)=O)NC(C)=O)C(=O)N[C@@H](Cc1ccccc1)C(=O)N[C@@H](CCC(=O)O)C(=O)NCC(=O)N[C@@H](Cc1ccc(OP(=O)(O)O)cc1)C(=O)N[C@@H](C)C(=O)N[C@@H](CC(C)C)C(=O)N1CCC[C@H]1C(=O)N[C@@H](Cc1c[nH]cn1)C(=O)N[C@@H](C)C(=O)NCC(N)=O [ACTA1 pY171] (Ac-QPIFEG[pY]ALPHAG-NH2)	4670		
CC(=O)N[C@@H](CCC(N)=O)C(=O)N[C@@H](CO)C(=O)N[C@@H](CC(C)C)C(=O)N[C@@H](CCC(=O)O)C(=O)N[C@@H](CCCCN)C(=O)N[C@@H](CO)C(=O)N[C@@H](Cc1ccc(OP(=O)(O)O)cc1)C(=O)N[C@@H](CCC(=O)O)C(=O)N[C@@H](CC(C)C)C(=O)N[C@@H](CC(C)C)C(=O)N[C@@H](CC(=O)O)C(=O)NCC(=O)NCC(N)=O [ACTB pY240 P243L] (Ac-QSLEKS[pY]ELLDGG-NH2)	6090		
CC(=O)N[C@@H](CCC(N)=O)C(=O)N[C@@H](CO)C(=O)N[C@@H](CC(C)C)C(=O)N[C@@H](CCC(=O)O)C(=O)N[C@@H](CCCCN)C(=O)N[C@@H](CO)C(=O)N[C@@H](Cc1ccc(OP(=O)(O)O)cc1)C(=O)N[C@@H](CCC(=O)O)C(=O)N[C@@H](CC(C)C)C(=O)N1CCC[C@H]1C(=O)N[C@@H](CC(=O)O)C(=O)NCC(=O)NCC(N)=O [ACTB pY240] (Ac-QSLEKS[pY]ELPDGG-NH2)	9040		
CC[C@H](C)[C@H](NC(=O)CNC(=O)[C@H](CCC(=O)O)NC(=O)[C@@H](NC(=O)[C@H](CCC(N)=O)NC(C)=O)C(C)C)C(=O)N[C@@H](CO)C(=O)N[C@@H](Cc1ccc(OP(=O)(O)O)cc1)C(=O)N[C@@H](CC(=O)O)C(=O)N[C@@H](Cc1ccccc1)C(=O)N[C@H](C(=O)N1CCC[C@H]1C(=O)N[C@H](C(=O)NCC(N)=O)[C@@H](C)O)[C@@H](C)CC [CBS pY308 G307S] (Ac-QVEGIS[pY]DFIPTG-NH2)	4280		
CC[C@H](C)[C@H](NC(=O)CNC(=O)[C@H](CCC(=O)O)NC(=O)[C@@H](NC(=O)[C@H](CCC(N)=O)NC(C)=O)C(C)C)C(=O)NCC(=O)N[C@@H](Cc1ccc(OP(=O)(O)O)cc1)C(=O)N[C@@H](CC(=O)O)C(=O)N[C@@H](Cc1ccccc1)C(=O)N[C@H](C(=O)N1CCC[C@H]1C(=O)N[C@H](C(=O)NCC(N)=O)[C@@H](C)O)[C@@H](C)CC [CBS pY308] (Ac-QVEGIG[pY]DFIPTG-NH2)	2730		
CC[C@H](C)[C@H](NC(=O)[C@H](CC(C)C)NC(=O)[C@H](CO)NC(=O)[C@H](Cc1ccc(OP(=O)(O)O)cc1)NC(=O)[C@H](CCCNC(=N)N)NC(=O)[C@H](CCCNC(=N)N)NC(=O)[C@H](CCC(N)=O)NC(=O)[C@H](CC(=O)O)NC(=O)[C@H](CO)NC(=O)[C@H](CCC(N)=O)NC(C)=O)C(=O)N[C@@H](CC(=O)O)C(=O)N[C@@H](CCCNC(=N)N)C(=O)NCC(N)=O [CLIP2 pY972] (Ac-QSDQRR[pY]SLIDRG-NH2)	3980		
Ac-QLHVHP-pY-EKVEDG-NH2 [Syn-F-1 (synthetic)]			Kd [3]: 30.2 nM
Ac-QMEKHV-pY-ESVTQG-NH2 [Syn-F-2 (synthetic)]			Kd [3]: 18.3 nM

The next lines start with results.

Kd [1, 4] [nM]	Kd [2] [nM]	Compound	further results
	3.99	Ac-QHNIHS-pY-INIPPG-NH2 [Syn-G2-2 (synthetic)]	
	2250	Ac-QHRLNN-pY-ENNRLG-NH2 [Syn-G2-6 (synthetic)]	
	3240	Ac-QIEVGT-pY-QNPHNG-NH2 [Syn-G2-7 (synthetic)]	
	31.8	Ac-QKEAHH-pY-VNWRTG-NH2 [Syn-G2-1 (synthetic)]	Kd ([1]; Table S3 unpaired validation, [SH2] 123-126 nM): 9660 nM
	487	Ac-QLGHQR-pY-HNITPG-NH2 [Syn-G2-5 (synthetic)]	

— paper doi:10.1101/2024.12.23.630085, “Accurate sequence-to-affinity models for SH2 domains from multi-round peptide binding assays coupled with free-energy regression” (bioRxiv, 2025)
